From patent US20120277436A1, “PHENYLHYDRAZONE DERIVATIVES AND THEIR USE AS PHARMACEUTICALS” (priority 2009, published 2012)

Tests used:
[1] = test system: TA100, TA98, TA 102, TA 1537 and TA 1535; assay: AMES test, overall conclusion over all strains; assay type: cell-based, Salmonella typhimuriu; settings: absence and presence of S-9
Description: Gene mutation can be evaluated in vitro, using amino-acid requiring strains of Salmonella typhimuriu. Different protocols for this test have been published (Ames B. N. et al Mutation Res. 1975, 31, 347-364, and Gatehouse D. et al Mutation Res. 1994, 312, 217-233). The principle of this bacterial reverse mutation test is that it detects mutations which revert mutations present in the test strains and restore the functional capability of the bacteria to synthesise an essential amino acid. The revertant bacteria are detected by their ability to grow in the absence of the amino acid required by the parent test strain.
In the present example, the guidelines OECD TG 471 (i.e. AMES Test) was used to detect gene mutation at different doses in the TA100, TA98, TA 102, TA 1537 and TA 1535.
Treatments covering a broad range of concentrations, separated by narrow intervals, were performed both in the absence and presence of metabolic activation (S-9) from Aroclor 1254 induced animals. The compound was formulated in anhydrous analytical grade dimethylsulphoxide (DMSO) and the highest concentration used in was determined following a preliminary cytotoxicity Range-Finder Experiment.

[2] = test system: Male obese Zucker diabetic fatty (ZDF fa/fa) rats; assay: Treatment of prediabetic ZDF rats by IP injection (plasma glucose, serum triglycerides); assay type: in vivo, rat; settings: IP injection 10 mg/kg once daily for three weeks, PEG 300
Experimental: Male obese Zucker diabetic fatty (ZDF fa/fa) rats were used to test the in vivo activity of compound 1. This animal model develops hyperglycemia and insulin resistance.
In this example, six-week-old male prediabetic ZDF rats (Charles River) are provided rat chow and water ad libidum. The obese rats are divided into a control and a treated groups (n=6 per subgroup).
The compound 1 is dissolved in PEG 300 and administrated by IP injection at a dose of 10 mg/kg once daily for a period of three weeks.
Glucose plasma level can be measured by the commercially available kit using the glucose oxydase method (Sigma Chemical Co.).
(§1) Assay of serum triglycerides may be performed enzymatically using a commercially available kit. In summary, the triglycerides are treated with a lipase in order to generate glycerol and fatty acids. In the presence of ATP, the glycerol is transformed by […] into glycerol-3-phosphate. The glycerol-3-phosphate is subsequently transformed into dihydroxyacetone in generating oxygenated water (H202) which may be detected by formation of quinoneimine in the presence of parachlorophenol, amino-4-antipyrin and peroxydase. The intensity of the quinoneimine coloration is subsequently measured at 505 nm. This coloration is proportional to the quantity of triglycerides present in the sample.

ZDF rats = assay: Treatment of prediabetic ZDF rats by oral administration (plasma triglycerides); assay type: in vivo, rat
Experimental: as §1
Following the same experiments as in example 2.2, ZDF rats were used to evaluate the effect of the compound on the glycaemia and the plasma level of triglycerides using the experimental protocol described in example 2.2.
The compound was dissolved in PEG 300 and orally administrated to a series of 8 rats for 2 weeks.

Question: How did the “mutagenic activity in AMES test” value [1] turn out when `COc1cc(O)c(/C=N/NC(=O)c2ccc3nccn3c2)c(OC)c1` [Compound 1, [1-(2-hydroxy-4,6-dimethoxy-phenyl)-methylidene]-imidazo[1,2-a]pyridine-6-carbohydrazide] was run?
Answer: does not exhibit mutagenic activity

Question: What about the circulating triglycerides [2] of the same compound?
Answer: significantly reduce

Question: What about the “plasma level of glucose” value [2] of the same compound?
Answer: significantly reduces

Question: And the circulating triglycerides (ZDF rats; administered orally, 2 weeks)?
Answer: significantly reduce

Question: What about the “Reduction of plasma triglycerides” value (ZDF rats; orally administrated for 2 weeks, versus untreated rats) of the same compound?
Answer: 37.4%

Question: What about the “Triglycerides, plasma level” value (ZDF rats; orally administrated in PEG 300 for 2 weeks, ZDF rats (n = 8)) of the same compound?
Answer: 1.02 ± 0.1 mM
